Among the data in patent US7301020B2, “Macrolide analogs and methods for identifying same” (priority 2003, dated 2007) are actin monomer sequestering values, retold here.

In this experiment the target is T1, G-actin (Oryctolagus cuniculus, UniProt P68135).
T1 construct: F-actin is purified from rabbit skeletal muscle using a standard protocol; from tissue; host or cells: rabbit skeletal muscle
Briefly: Prodan-actin polymerization assay. In kind it is biochemical, rabbit. The note with it: stoichiometric binding conditions. On the procedure:
FIG. 5: Time course for G-actin polymerization. Prodan-labeled G-actin is mixed to a final concentration of 5 μM with a pre-formed complex of G-actin-KBC at the following concentrations: a: 0 nM; b: 1 nM; c: 5 nM; d: 10 nM; e: 20 nM; f: 50 nM; g: 250 nM) and the polymerization reaction initiated by the addition of KCl and MgCl2 to 0.1 M and 2 mM respectively at 20°. Excitation at 385 nm and Emission at 465 nm.
Prodan-Actin Polymerization assay The fluorescence emission spectrum of a 5 μM solution of Prodan-labeled G-actin is recorded in G-buffer. Polymerization is initiated by adding KCl and MgCl2 to 100 mM and 2 mM respectively and the time course of the reaction is monitored continuously over a 60-minute period time by recording the emission intensity at 465 nm. In other experiments the progress of actin polymerization is determined by recording the Prodan-actin emission spectrum at defined times during the reaction.
The G-actin-KabC complex inhibits actin polymerization by capping the (+)-end of the filament. […] Adding KCl and MgCl2 to 100 mM and 2 mM respectively polymerizes this G-actin mixture and the progress of the reaction is monitored by the increase in Prodan-actin fluorescence at 465 nm (FIG. 5; Marriott et al, 1988). […]

With Kabiramide C [KabC], the actin monomer sequestering result was “sequester actin monomers and raise the critical concentration for actin polymerization”.
